Reference: patent US20180296630A1, “METHODS AND COMPOSITIONS FOR PREVENTING OR TREATING OPHTHALMIC CONDITIONS” (Stealth BioTherapeutics Corp, priority 2012, published 2018)

Legend:
[1] = system: STZ and HFD/STZ diabetic rats; assay: Retinal microvessel changes in diabetic SD rats; type: in vivo, Sprague-Dawley rat; details: STZ or HFD/STZ rats
Method: (§1) A rat model of diabetes was established by combination of 6-week HFD and low dose of STZ (30 mg/kg) injection or a single high dose of STZ (65 mg/kg) in SD rats. See generally, K. Srinivasan, B. Viswanad, Lydia Asrat, C. L. Kaul and P. Ramarao, Combination of high-fat diet-fed and low-dose streptozotocin-treated rat: A model for type 2 diabetes and pharmacological screening, Pharmacological Research, 52(4): 313-320, 2005. Rats of the same batch fed with normal chow (NRC) were used as a control.
The effect of the aromatic-cationic peptides on retinal microvessels in the SD rat model was investigated (FIGS. 11-12). Administration of D-Arg-2′,6′-Dmt-Lys-Phe-NH2 reduced retinal microvasular changes observed in STZ or HFD/STZ rats.

[2] = system: mouse model of retina degeneration; assay: Mouse model of retina degeneration (ONL thickness, PNA cone staining); type: in vivo; details: compared to untreated mice
Description: CNV is induced in the eye with laser burns. (see Example 6). Mouse models of retinal degeneration have been investigated for many years in the hope of understanding the causes of photoreceptor cell death. Naturally occurring mouse mutants that manifest degeneration of photoreceptors in the retina with preservation of all other retinal cell types have been found: retinal degeneration (formerly rd, identical with rodless retina, r, now Pde6b rd1); Purkinje cell degeneration (pcd); nervous (nr); retinal degeneration slow (rds, now Prph Rd2); retinal degeneration 3 (rd3); motor neuron degeneration (mnd); retinal degeneration 4 (Rd4); retinal degeneration 5 (rd5); vitiligo (vir, now Mitf mi-vit); retinal degeneration 6 (rd6); retinal degeneration 7 (rd7); neuronal ceroid lipofuscinosis (nclf); retinal degeneration 8 (rd8); retinal degeneration 9 (Rd9); retinal degeneration 10 (rd10); and cone photoreceptor function loss (cpfl1).
FIG. 28 is a series of micrographs showing the thickness of the retinal outer nuclear layer (ONL) in a mouse model of retina degeneration in control and D-Arg-2′,6′-Dmt-Lys-Phe-NH2-treated mice.

[3] = system: HFD/STZ diabetic rats; assay: Lens opacity (cataract) in HFD/STZ rat model; type: in vivo, Sprague-Dawley rat; details: for Percentage of opacity / Percentage of severe opacity / Turbidity degree + (mildly opaque), number in group / Turbidity degree ++ (opaque), number in group / Turbidity degree +++ (moderately opaque), number in group / Turbidity degree ++++ (severely opaque), number in group / Turbidity degree − (transparent), number in group: HFD/STZ rat model
Method: as §1

[4] = system: 661W cells; assay: Mitochondrial viability of 661W cells exposed to tBHP (JC-1 assay); type: cell-based, mouse; details: 100 nmol/L
Method: The potential of D-Arg-2′,6′-Dmt-Lys-Phe-NH2 (D-Arg-2′,6′-Dmt-Lys-Phe-NH2) to protect against loss of mitochondrial viability induced by tBHP, 100 nmol/L D-Arg-2′,6′-Dmt-Lys-Phe-NH2 was administered to the cultures of 661w cells.

[5] = system: GTM and HTM cells; assay: Oxidative stress induced by hydrogen peroxide in GTM and HTM cells (collective conclusion); type: cell-based, human
Method: The cells were divided into three groups: “Group A” cells were exposed to hydrogen peroxide prior to administration of D-Arg-2′,6′-Dmt-Lys-Phe-NH2. “Group B” cells were exposed to D-Arg-2′,6′-Dmt-Lys-Phe-NH2 prior to administration of hydrogen peroxide. “Group C” cells were administered D-Arg-2′,6′-Dmt-Lys-Phe-NH2 and hydrogen peroxide simultaneously.
The effects of D-Arg-2′,6′-Dmt-Lys-Phe-NH2 on sustained oxidative injury of GTM and HTM cells was examined. Cells were pre-treated with 10^−6, 10^−7, 10^−8M of D-Arg-2′,6′-Dmt-Lys-Phe-NH2 for 1 h, and then incubated with 200 μM H2O2 for 24 h to investigate the protective effect of D-Arg-2′,6′-Dmt-Lys-Phe-NH2 in sustained oxidative stress.

With D-Arg-2′,6′-Dmt-Lys-Phe-NH2 the retinal microvascular changes [1] was “reduced”, the “cone cell density (PNA-stained retinal flat mounts)” value [2] was “greater” and the “rows of cells in the retinal outer nuclear layer (ONL)” value [2] was “retained a greater number of rows of cells”. For the same substance, the “cataract formation in the lenses of diabetic rats” value ([3]; HFD/STZ and STZ models (FIGS. 6 and 7, Tables 13 and 14)) was “prevention or reversal of cataract formation”, the Percentage of opacity ([3]; 1 mg (Table 9: 1 mg/kg s.c.)) was 67.7% and the “Percentage of severe opacity” value ([3]; 1 mg (Table 9: 1 mg/kg s.c.)) was 0%. For the same substance, the “Turbidity degree + (mildly opaque), number in group” value (shortened to “Turbidity degree + (mildly opaque)”) ([3]; 1 mg (Table 9: 1 mg/kg s.c.)) was 1, the “Turbidity degree ++ (opaque), number in group” value (from here on “Turbidity degree ++ (opaque)”) ([3]; 1 mg (Table 9: 1 mg/kg s.c.)) was 1 and the “Turbidity degree +++ (moderately opaque), number in group” value ([3]; 1 mg (Table 9: 1 mg/kg s.c.)) was 0. For the same substance, the “Turbidity degree ++++ (severely opaque), number in group” value (shortened to “Turbidity degree ++++ (severely opaque)”) ([3]; 1 mg (Table 9: 1 mg/kg s.c.)) was 0, the “Turbidity degree − (transparent), number in group” value (shortened to “Turbidity degree − (transparent)”) ([3]; 1 mg (Table 9: 1 mg/kg s.c.)) was 1 and the Percentage of opacity ([3]; 3 mg (Table 9: 3 mg/kg s.c.)) was 20.0%. For the same substance, the “Percentage of severe opacity” value ([3]; 3 mg (Table 9: 3 mg/kg s.c.)) was 20.0%, the “Turbidity degree + (mildly opaque)” value ([3]; 3 mg (Table 9: 3 mg/kg s.c.)) was 1 and the “Turbidity degree ++ (opaque)” value ([3]; 3 mg (Table 9: 3 mg/kg s.c.)) was 0. The “Turbidity degree +++ (moderately opaque), number in group” value ([3]; 3 mg (Table 9: 3 mg/kg s.c.)) was 0, the “Turbidity degree ++++ (severely opaque)” value ([3]; 3 mg (Table 9: 3 mg/kg s.c.)) was 1 and the “Turbidity degree − (transparent)” value ([3]; 3 mg (Table 9: 3 mg/kg s.c.)) was 3. The Percentage of opacity ([3]; 10 mg (Table 9: 10 mg/kg s.c.)) was 14.3%, the “Percentage of severe opacity” value ([3]; 10 mg (Table 9: 10 mg/kg s.c.)) was 0% and the “Turbidity degree + (mildly opaque)” value ([3]; 10 mg (Table 9: 10 mg/kg s.c.)) was 1. The “Turbidity degree ++ (opaque)” value ([3]; 10 mg (Table 9: 10 mg/kg s.c.)) was 0, the “Turbidity degree +++ (moderately opaque), number in group” value ([3]; 10 mg (Table 9: 10 mg/kg s.c.)) was 0 and the “Turbidity degree ++++ (severely opaque)” value ([3]; 10 mg (Table 9: 10 mg/kg s.c.)) was 0. The “Turbidity degree − (transparent)” value ([3]; 10 mg (Table 9: 10 mg/kg s.c.)) was 6, the “mitochondrial viability (JC-1 assay)” value [4] was “significantly enhanced” and the “concentration at which sustained and acute oxidative stress induced by hydrogen peroxide can be prevented” value [5] was > 10^−9 M.
